From US9096615B2, “Bridged bicyclic amino thiazine dioxide compounds as inhibitors of beta-secretase and methods of use thereof” (AMGEN INC., priority 2013, dated 2015)
Read-outs that look alike come from different tables or passages of the source.

Tests used:
[1] = biological target: BACE1 (Homo sapiens, UniProt P56817); assay: In vitro enzymatic BACE FRET assay; type: biochemical
Procedure, shortened: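 Fluorescence (excitation 488 nm, […]) from cleavage of quenched peptide substrate (50 nM), reaction run 1 h after 1 h enzyme–inhibitor pre-incubation, then neutralised with Tris. Conditions: 0.2 nM enzyme, pH 4.2 acetate 0.05 M, 10% DMSO final, 100 uM genapol.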

[2] = system: Aβ40 in conditioned medium of cells stably expressing Amyloid Precursor Protein (APP); assay: In vitro BACE cell-based assay (HEK cell assay, Aβ40 sandwich ELISA); conditions: Homo sapiens, HEK293
Procedure, shortened: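 IC50 was derived from percent-of-control Aβ40 against concentration, with Aβ40 quantified by time-resolved fluorescence ELISA (pAb40/6E10-biotin, 4 °C incubations). Supernatants were sampled after 24 h of compound exposure (10 points, starting 100 or 10 μM, 0.1% DMSO) of cells stably expressing APP.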

[3] = biological target: T1, Cathepsin D (Cat D) (Homo sapiens, UniProt P07339); assay: In vitro enzymatic Cathepsin D (Cat D) FRET assay; type: biochemical; conditions: read-out: CatD IC50
T1 construct: made in house; host or cells: CHO cells
T1 sequence (P07339 65-412, species assumed): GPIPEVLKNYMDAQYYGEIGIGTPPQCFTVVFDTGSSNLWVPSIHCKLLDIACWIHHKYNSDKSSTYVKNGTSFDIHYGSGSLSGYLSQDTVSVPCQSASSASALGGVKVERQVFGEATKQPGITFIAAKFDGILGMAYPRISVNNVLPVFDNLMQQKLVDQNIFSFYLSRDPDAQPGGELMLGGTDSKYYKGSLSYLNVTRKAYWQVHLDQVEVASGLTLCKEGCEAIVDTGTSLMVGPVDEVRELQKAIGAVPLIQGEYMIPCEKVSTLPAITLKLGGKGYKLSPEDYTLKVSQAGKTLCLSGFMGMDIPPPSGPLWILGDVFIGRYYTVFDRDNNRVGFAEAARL
Procedure, shortened: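 Fluorescence (500 nm excitation, 580 nm emission) was measured after Tris quench of a 1 h cleavage of 20 nM quenched peptide substrate. Before that, 9 nM CHO-expressed human Cat D sat with compound for 1 h at pH 3.5 (0.05 M citrate, 5 mM CHAPS, 10% DMSO final).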

[4] = system: Abeta 40; assay: In vivo inhibition of beta-secretase: percent Abeta 40 reduction in CSF and brain; parameters: species or system rat; conditions: 10 mpk, after 4 hrs
Description: In Vivo Inhibition of Beta-Secretase
Several animal models, including mouse, rat, dog, and monkey, may be used to screen for inhibition of beta-secretase activity in vivo following administration of a test compound sample. Animals used in this invention can be wild type, transgenic, or gene knockout animals. For example, the Tg2576 mouse model, prepared and conducted as described in Hsiao et al., 1996, Science 274, 99-102, and other non-transgenic or gene knockout animals are useful to analyze in vivo inhibition of Amyloid beta peptide (Abeta) production in the presence of inhibitory test compounds. Generally, 2 to 18 month old Tg2576 mice, gene knockout mice or non-transgenic animals are administered test compounds formulated in vehicles, such as cyclodextran, phosphate buffers, hydroxypropyl methylcellulose or other suitable vehicles. One to twenty-four hours following the administration of compound, animals are sacrificed, and brains as well as cerebrospinal fluid (CSF) and plasma are removed for analysis of A-beta levels and drug or test compound concentrations (Dovey et al., 2001, Journal of Neurochemistry, 76, 173-181) Beginning at time 0, animals are administered by oral gavage, or other means of delivery such as intravenous injection, an inhibitory test compound of up to 100 mg/kg in a standard, conventional formulation, such as 2% hydroxypropyl methylcellulose, 1% Tween80. A separate group of animals receive 2% hydroxypropyl methylcellulose, 1% Tween80 alone, containing no test compound, and serve as a vehicle-control group. At the end of the test period, animals are sacrificed and brain tissues, plasma or cerebrospinal fluid are collected. Brains are either homogenized in 10 volumes (w/v) of 0.2% diethylamine (DEA) in 50 mM NaCl (Best et al., 2005, Journal of Pharmacology and Experimental Therapeutics, 313, 902-908), or in 10 volumes of 0.5% TritonX-100 in Tris-buffered saline (pH at about 7.6). Homogenates are centrifuged at 355,000 g, 4° C. for 30 minutes. CSF or brain supernatants are then analyzed for the presence of A-beta peptide by specific sandwich ELISA assays based on ECL (Electrochemiluminescence) technology. For example, rat Abeta40 is measured using biotinylated-4G8 (Signet) as a capture antibody and Fab40 (an in-house antibody specific to the C-terminal of Abeta40) as a detection antibody. For example, 4 hours after administration of 30 mg/kg oral dose of the test compound in 2% hydroxypropyl methylcellulose, 1% Tween80 (pH2.2) to 200 g male Sprague Dawley rats, amyloid beta peptide levels are measured for reduction by X % and Y % in cerebrospinal fluid and brain, respectively, when compared to the levels measured in the vehicle-treated or control […].
Actual vehicles used: Oral: 2% HPMC, 1% Tween80, pH 2.2
• IV: 5% EtOH, 45% Propylene glycol in 5% Dextrose
The compounds of the invention may be shown to reduce the formation and/or deposition of amyloid beta peptide in the cerebrospinal fluid (CSF) as well as in the brain of a mouse or rat at either 3 mpk, 10 mpk or 30 mpk (mpk=mg compound per kg weight of the animal) dosing concentrations after 4 hrs.

[5] = average IC50, read-out: BACE1 Enzyme assay IC50
[6] = average IC50, read-out: BACE1 cell assay IC50
[7] = Abeta 40, rat CSF, read-out: % reduction of rat CSF levels at 10 pmk
[8] = Abeta 40, rat brain, read-out: % reduction of rat brain levels at 10 mpk
[9] = read-out: BACE1 FRET assay IC50
[10] = Aβ40, 24 h incubation, read-out: HEK cell assay IC50

Chain of BACE1 (P56817 46-501, species assumed): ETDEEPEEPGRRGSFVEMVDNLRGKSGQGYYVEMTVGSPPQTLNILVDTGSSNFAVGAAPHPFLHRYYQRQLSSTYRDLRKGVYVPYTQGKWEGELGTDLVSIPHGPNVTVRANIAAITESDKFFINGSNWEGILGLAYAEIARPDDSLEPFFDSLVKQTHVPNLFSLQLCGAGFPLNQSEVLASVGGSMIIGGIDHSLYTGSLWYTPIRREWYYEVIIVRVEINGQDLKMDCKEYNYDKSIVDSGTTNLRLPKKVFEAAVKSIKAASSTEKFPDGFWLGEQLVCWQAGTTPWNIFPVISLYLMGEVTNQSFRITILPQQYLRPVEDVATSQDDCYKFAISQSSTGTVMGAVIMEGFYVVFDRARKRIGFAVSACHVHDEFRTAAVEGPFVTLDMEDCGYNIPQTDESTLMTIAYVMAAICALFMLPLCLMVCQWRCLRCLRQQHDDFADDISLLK

| Compound | IC50 [1, 5] [µM] | IC50 [2, 6] [µM] | IC50 ([3]; average IC50, first procedure) [µM] | inhibition in vivo at 10 mg/kg [4, 7] [%] | inhibition in vivo at 10 mg/kg [4, 8] [%] | IC50 [1, 9] [µM] | IC50 [2, 10] [µM] | IC50 [3] [µM] |
| --- | --- | --- | --- | --- | --- | --- | --- | --- |
| CC#Cc1ccc(C(=O)Nc2ccc(F)c([C@@]3(C)N=C(N)[C@@]4(C)CC[C@@H]3S4(=O)=O)c2)nc1 [Example 69, N-(3-((1S,2R,5R)-4-amino-2,5-dimethyl-8,8-dioxido-8-thia-3-azabicyclo[3.2.1]oct-3-en-2-yl)-4-fluorophenyl)-5-(1-propyn-1-yl)-2-pyridinecarboxamide] | 0.002 | 0.003 | > 400 | 42 | 9 | – | – | – |
| C[C@]1(c2cc(NC(=O)c3cnc(C(F)F)cn3)ccc2F)N=C(N)[C@@]2(CF)CC[C@@H]1S2(=O)=O [Example 109, N-(3-((1S,2R,5R)-4-amino-5-(fluoromethyl)-2-methyl-8,8-dioxido-8-thia-3-azabicyclo[3.2.1]oct-3-en-2-yl)-4-fluorophenyl)-5-(difluoromethyl)-2-pyrazinecarboxamide] | 0.017 | 0.007 | 1040 | 70 | 57 | – | – | – |
| Cc1cc(C(F)(F)F)cnc1C(=O)Nc1ccc(F)c([C@@]2(C)N=C(N)[C@@]3(CF)CC[C@@H]2S3(=O)=O)c1 [Example 92, N-(3-((1S,2R,5R)-4-amino-5-(fluoromethyl)-2-methyl-8,8-dioxido-8-thia-3-azabicyclo[3.2.1]oct-3-en-2-yl)-4-fluorophenyl)-3-methyl-5-(trifluoromethyl)-2-pyridinecarboxamide] | 0.004 | 0.005 | 789 | 73 | 67 | – | – | – |
| COc1cnc(C(=O)Nc2ccc(F)c([C@@]3(C)N=C(N)[C@@]4(C)CC[C@@H]3S4(=O)=O)c2)c(C)n1 [Example 79, N-(3-((1S,2R,5R)-4-amino-2,5-dimethyl-8,8-dioxido-8-thia-3-azabicyclo[3.2.1]oct-3-en-2-yl)-4-fluorophenyl)-5-methoxy-3-methyl-2-pyrazinecarboxamide] | 0.009 | 0.003 | 1830 | 71 | 62 | – | – | – |
| C[C@]1(c2cc(NC(=O)c3ncc(Cl)cc3Cl)ccc2F)N=C(N)[C@@]2(CF)CC[C@@H]1S2(=O)=O [Example 105, N-(3-((1S,2R,5R)-4-amino-5-(fluoromethyl)-2-methyl-8,8-dioxido-8-thia-3-azabicyclo[3.2.1]oct-3-en-2-yl)-4-fluorophenyl)-3,5-dichloro-2-pyridinecarboxamide] | 0.002 | 0.004 | 926 | 74 | 71 | – | – | – |
| Cc1cc(C(F)(F)F)cnc1C(=O)Nc1ccc(F)c([C@@]2(C)N=C(N)[C@@]3(C)CC[C@@H]2S3(=O)=O)c1 [Example 24, N-(3-((1S,2R,5R)-4-Amino-2,5-dimethyl-8,8-dioxido-8-thia-3-azabicyclo[3.2.1]oct-3-en-2-yl)-4-fluorophenyl)-3-methyl-5-(trifluoromethyl)picolinamide] | – | – | – | 72 | 62 | 0.005 | 0.001 | 591 |
| C[C@]1(c2cc(NC(=O)c3ccc(C(F)(F)F)cn3)ccc2F)N=C(N)[C@@]2(CF)CC[C@@H]1S2(=O)=O [Example 110, N-(3-((1S,2R,5R)-4-amino-5-(fluoromethyl)-2-methyl-8,8-dioxido-8-thia-3-azabicyclo[3.2.1]oct-3-en-2-yl)-4-fluorophenyl)-5-(trifluoromethyl)-2-pyridinecarboxamide] | 0.006 | 0.005 | 536 | 65 | 54 | – | – | – |
| C[C@]1(c2cc(N)ccc2F)N=C(N)[C@@]2(C)CC[C@@H]1S2(=O)=O [Example 35, (1R,4R,5S)-4-(5-amino-2-fluorophenyl)-1,4-dimethyl-8-thia-3-azabicyclo[3.2.1]oct-2-en-2-amine 8,8-dioxide] | – | – | – | 52 | 46 | 10.1 | 5.81 | 287 |
| C[C@]1(c2cc(Nc3ncnc4cc(Cl)cnc34)ccc2F)N=C(N)[C@@]2(CF)CC[C@@H]1S2(=O)=O [Example 98, N-(3-((1S,2R,5R)-4-amino-5-(fluoromethyl)-2-methyl-8,8-dioxido-8-thia-3-azabicyclo[3.2.1]oct-3-en-2-yl)-4-fluorophenyl)-7-chloropyrido[3,2-d]pyrimidin-4-amine] | 0.005 | 0.015 | 286 | 70 | 74 | – | – | – |
| Cc1cnc(COc2cnc3c(Nc4ccc(F)c([C@@]5(C)N=C(N)[C@@]6(C)CC[C@@H]5S6(=O)=O)c4)nccc3n2)o1 [Example 146, N-(3-((1S,2R,5R)-4-amino-2,5-dimethyl-8,8-dioxido-8-thia-3-azabicyclo[3.2.1]oct-3-en-2-yl)-4-fluorophenyl)-2-((5-methyl-1,3-oxazol-2-yl)methoxy)pyrido[3,4-b]pyrazin-5-amine] | 0.001 | 0.001 | 417 | 35 | 13 | – | – | – |
| Cc1cc(C(F)F)cnc1C(=O)Nc1ccc(F)c([C@@]2(C)N=C(N)[C@@]3(CF)CC[C@@H]2S3(=O)=O)c1 [Example 103, N-(3-((1S,2R,5R)-4-amino-5-(fluoromethyl)-2-methyl-8,8-dioxido-8-thia-3-azabicyclo[3.2.1]oct-3-en-2-yl)-4-fluorophenyl)-5-(difluoromethyl)-3-methyl-2-pyridinecarboxamide] | 0.009 | 0.007 | 891 | 62 | 58 | – | – | – |
